Test results: patent US20030039657A1, “Inducible vaccines” (priority 1999, published 2003)

Tested on: humoral immune response against hAAT
Test: Anti-hAAT antibody (humoral immune response) in mouse serum by ELISA after gene-gun DNA inoculation
Format: in vivo, balb/c mice
Method: Five to 7-week-old female Balb/c mice were given 4 μg reporter (P4U-hAAT) and 200 ng effector (GS1158) of the mifepristone-inducible plasmid DNA divided into four shots. Mifepristone was given i.p. 20 weeks after DNA administration (Day 140, 142, 144). Blood samples were take from the tail vein at various time points and anti-hAAT levels were determined by ELISA. Values are mean +/−SD for three mice per group. The control is with no drug treatment.
Specific-pathogen-free (5-7 weeks old), female balb/c mice were purchased from Jackson Labs (Bar Harbor, Me.). A biolistic gene gun (Rumsey-Loomis, Ithaca, N.Y.) was used to deliver plasmid DNA into the skin of mouse ears (Williams et al., 1991; Johnston and Tang 1993). Briefly, DNA was precipitated onto gold micro-projectiles (3±1 μm diameter, Metz Metallurgical Corp., South Plainfield, N.J.) at 4 μg DNA/mg gold. Each mouse received four shots of gold-DNA and each shots contains 1 μg reporter (P4U-AAT) and 50 ng effector (GS-1158) plasmid DNA. The drug (RU486, Sigma) was given intraperitoneally on days 1, 3, 5, and also on day 14, 16, in a dose of 500 μg/kg/day in 100 μl sesame oil, after DNA injection. […] The blood samples of the mice was collected from the tail vein at the time point as indicated. The anti-hAAT antibodies in the serum was measured using enzyme-linked immuno enzyme-linked immunosorbent assay (ELISA, Tang et al. 1992). Briefly, ninety six-well plats were coated with 1 μg hAAT per well in 50 μl phosphate buffered saline (PBS) (for overnight at 4° C. and 100 μl blocking buffer (3% bovine serum albumin (3SA) in PBS with 0.05% tween 20) was added and incubated for 2 hrs at room temperature. After 3 times washing with PBS plus 0.05% tween 20, the serum samples (diluted 1:200 in blocking buffer) were added into the well and incubated overnight at 4° C., then further incubated with horseradish peroxidase-conjugated goat anti-mouse immunoglobulin G and M (Jackson ImmunResearch, West Grove, Pa.) for 1 h at room temperature. The plate was washed and developed with TMB buffer solution (Calbiochem). The optical density was read at 450 nm and concentration of the antibodies was determined according to the standard curve.
The mice were given RU486 intraperitoneally in week 7 (Day 50, 52, 54) after the DNA injection in the drug and the Van Gogh (removed the site of the DNA inoculation, ear) groups. The ear cut was performed before administering the drug. The value shown is the mean with standard deviation for experiments on three mice.

## CC#C[C@]1(O)CC[C@H]2[C@@H]3CCC4=CC(=O)CCC4=C3[C@@H](c3ccc(N(C)C)cc3)C[C@@]21C [RU486, mifepristone]
FIG. 3, 4 shots of 1 μg P4U-AAT + 50 ng GS-1158, RU486 500 μg/kg/day ip days 1, 3, 5, 14, 16
  anti-hAAT antibody levels, time of peak: reached peak levels at the third week
FIG. 4, RU486 on week 3 (day 21, 23, 25) after DNA, 1 μg reporter and 50 ng effector per shot
  anti-hAAT immune response, inducibility by ligand: inducible by simply giving the ligand three weeks after the primary injection of the DNA
FIG. 6, RU486 ip in week 7 (Day 50, 52, 54) after DNA injection
  anti-hAAT immune response, inducibility by ligand: inducible 7 weeks after the DNA injection
FIG. 6, ear cut before RU486 in week 7
  anti-hAAT immune response after removal of the DNA inoculation site (Van Gogh group): the original vaccine site was not required for induction
